Results from paper PMC8885691, “Leveraging the multivalent p53 peptide-MdmX interaction to guide the improvement of small molecule inhibitors” (Nature Communications, 2022).
Where no end group is shown, it is not given here.

Key:
[1] = target: T1, N-MdmX (Homo sapiens, UniProt O15151); assay: Isothermal titration calorimetry (ITC) assay
T1 sequence (O15151 22-110): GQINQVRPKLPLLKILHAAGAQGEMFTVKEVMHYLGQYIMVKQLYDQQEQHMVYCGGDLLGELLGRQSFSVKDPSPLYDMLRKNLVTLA
Description: The protein−ligand interactions were characterized using a model ITC-200 isothermal titration microcalorimeter (Malvern, USA) at 25 °C. A typical experiment included the injection of 19 aliquots (2.0 μL each) containing an ~0.2 mM ligand solution into an ~10–20 μM protein solution in the ITC cell (volume of ∼200 μL). Titrations were performed with a stirring speed of 750 rpm and a spacing time of 120 s. A control experiment was run by injecting a ligand solution into buffer instead of a protein solution in the cell. Before data analysis, the control values were subtracted from the experimental data. The binding isotherms were integrated to give the enthalpy change (ΔH) plotted as a function of the molar ratio of the ligand. When necessary, prior to the integration procedures, the baseline was manually adjusted to minimize the background noise. The Origin 7.0-based software was used for data analysis with the one-set-of-binding-sites model. The disassociation constant of Kd was determined from the slope of the central linear part of the fractional saturation curve. The Gibbs free energy change (ΔG) and the entropy change (ΔS) were calculated on the basis of the following equations: ΔG =−RT ln Kd = ΔH − TΔS, where ΔH was derived from the original ΔH/molar ratio plots.

[2] = test system: HCT116, RKO, and H460a cells; assay: Real-time RT-qPCR of p21 and p53 genes in cancer cells with wild-type p53; type: cell-based; conditions: H203 for 8 h
Description: […]. […] […]. Total RNAs were extracted using a Trizol protocol with RNeasy® Mini kit from Qiagen (TX, USA). The concentration of RNAs was measured with Nanodrop-2000c. Real-time qPCR was performed with a BaldStar TaqMan One-Step RT-qPCR Kit from Biorab (Beijing, China) on a BioRad CFX96 qPCR instrument (CA, USA). The primers and probes for qPCR were designed using Primer Express 3.0 software (Applied Biosystems, USA). […]. TaqMan probes were labeled with 5′-FAM and 3′-TAMRA. All primers and probes were synthesized by GenScript (Nanjing, China). Samples were analyzed in triplicate and normalized to the control.

Q: For WKLLPEN [p53p^ΔF19], which Kd [1] is on record?
A: 20.1 ± 3.25 µM

Q: What does the source list for O=C1CN(C(=O)N2C(c3ccc4c(c3)N(c3ccccc3)C(=O)CNC4=O)=N[C@@H](c3ccc(Cl)cc3)[C@H]2c2ccc(Cl)cc2)CCN1 [H203]?
A: transcription of the p53 gene [2]: unaffected; transcription of p21 ([2]; all three cell lines): increased in a dose-dependent manner
